One data set concerns serum IL-4 and IFN-γ. Nature of the data set: Serum IL-4 and IFN-γ by ELISA after i.p. glycolipid injection into naïve B6 mice. To be noted: compared to OCH. The format is in vivo, mouse. As to the method:
FIG. 10: Effect of glycolipid agonists on cytokine expression in naïve B6 mice, and on iNKT cells in septic B6 mice. (a) Naïve B6 mice were injected i.p. with 4 μg OCH or KRN7000 or C20:2, and bled at 2, 12, and 24 hours post-injection. Serum samples were assayed for IL-4 and IFN-γ by enzyme-linked immunosorbent assay (ELISA). […] Vehicle-treated mice had cytokine levels below limits of detection. (b) B6 mice were given an intraperitoneal injection of fecal slurry (500 μL of a 90 mg/mL solution) to induce IAS and concomitantly treated with 4 μg of vehicle, OCH, or KRN7000. After 24 hours, mice were sacrificed, and cell suspensions from the liver and spleen were stained for the flow cytometric detection of CD1d tetramer+ TCRβ+iNKT cells.
(§1) Lyophilized OCH was generously provided by the National Institutes of Health (NIH) Tetramer Core Facility (Emory University, Atlanta, Ga.). Each vial containing 0.2 mg of OCH was solubilized in a vehicle solution containing 1 mL of sterile distilled water, 0.5% Tween 20, 56 mg of sucrose and 7.5 mg of histidine, and stored as aliquots at 4° C. until use. KRN7000 (α-GalCer, C26:0/C18:0) was purchased from Funakoshi Co. Ltd. (Tokyo, Japan), solubilized at 1 mg/ml in dimethylsulphoxide (DMSO), and stored as aliquots at −20° C. until use (29); the control vehicle was 2% DMSO in phosphate-buffered saline (PBS). C20:2 was synthesized and used as previously published (30, 31). For in vivo experiments, mice were injected intraperitoneally (i.p.) with a single dose of glycolipid (4 μg/dose) (30) within twenty minutes after induction of IAS.
Cytokine concentrations were determined by commercially available specific ELISA assays for IL-4 and IFN-γ (Ready-Set-Go kits, eBioscience). ODs were measured on a Benchmark Microplate Reader (Bio-Rad) at a wavelength of 450 nm for both cytokines.
For orientation: ELISA stands for enzyme-linked immunosorbent assay.

The conditions of data set [1]: C20:2 compared to OCH; cited from earlier work.
Data set [2] has as its system B6 mice with intra-abdominal sepsis (IAS). Nature of the data set: Murine intra-abdominal sepsis (IAS) model: survival and murine sepsis score (MSS). The format is in vivo, mouse. To be noted: septic B6 mice. As to the method: Stool from the cecum of euthanized naïve B6 mice was expressed through an enterotomy, homogenized, and suspended in 0.9% normal saline (NS) to produce a fecal slurry at a final concentration of 90 mg/mL, for use in experiments on the same day. Mice were injected intraperitoneally with 500 μL fecal slurry or 0.9% normal saline (sham group). The mice were monitored and scored by two independent investigators—one of whom was blinded to the treatment—every 2-3 hours for the first 12 hours, and then every 1-2 hours thereafter. A murine sepsis score (MSS) was assigned to each mouse based on activity, eye movement, response to exogenous stimuli, breathing rate and pattern, and degree of piloerection (Shrum et al. BMC Research Notes 2014, 7:233). The MSS is a reliable and robust scoring system that has excellent inter-rater reliability (intra-class coefficient=0.96), high internal consistency (Cronbach α=0.92), and correlates with levels of certain pro-inflammatory cytokines such as IFN-γ and IL-1β during the experimental timeline (Shrum et al. BMC Research Notes 2014, 7:233). Mice were euthanized at 24 hours, or earlier if they were deemed to be in significant distress based on our scoring model. Euthanasia was carried out as described above. At the time of sacrifice, intra-cardiac blood was drawn into 1.5 mL micro-centrifuge tubes (BD Biosciences) and centrifuged for serum at 1000×g for 30 minutes at 4° C.
as §1

In another data set the test system is splenocyte apoptosis. Briefly: Histology (H&E) and TUNEL staining of spleen, liver and omentum of septic B6 mice. The format is in vivo, mouse. To be noted: 24 hours. The text has this:
FIG. 6: Histopathology of septic B6 mice treated with glycolipid agonists of iNKT cells. […] Lymphocyte migration to the omentum is also ameliorated in OCH-treated mice compared to vehicle- and KRN7000-treated mice. There were no histopathological differences in the liver. Images are representative of 4 animals per treatment group (size bar, 50 μm). (b) Histopathological scoring of the degree of apoptosis observed within the spleens of sham and septic B6 mice treated with vehicle, KRN7000, or OCH (n=4 animals per treatment group). Apoptosis was defined histologically by the presence of cell clusters with nuclear shrinkage (karyorrhexis), dark eosinophilic cytoplasm, intact plasma membrane, and relative paucity of surrounding inflammatory cells within the splenic follicles on H&E staining. Scores assigned to each animal by a blinded independent pathologist were as follows: 0 for complete absence of apoptosis; 1 for mild presence of apoptosis (0-15% per follicle); 2 for moderate apoptosis (16-30% per follicle); and 3 for severe apoptosis (31-45% per follicle). ***p<0.0001 by two-tailed Mann Whitney U test.
Liver, spleen, and omentum from sham B6 mice, and vehicle-, OCH-, and KRN7000-treated septic B6 mice were fixed in 10% neutral buffered formalin, embedded in paraffin, sectioned, and stained with H&E or subjected to TUNEL staining using a commercially available kit (Calbiochem). At least four stained sections per spleen from four animals per treatment group were examined and scored for apoptosis by a board-certified veterinary pathologist (Welch) who was blinded to the study design. Apoptosis was defined histologically by the presence of cell clusters with nuclear shrinkage (karyorrhexis), dark eosinophilic cytoplasm, intact plasma membrane, and relative paucity of surrounding inflammatory cells within the splenic follicles on H&E staining (34). Scores assigned to each animal were as follows: 0 for complete absence of apoptosis; 1 for mild presence of apoptosis (0-15% per follicle); 2 for moderate apoptosis (16-30% per follicle); and 3 for severe apoptosis (31-45% per follicle). Photomicrographs were taken using a Nikon DS-Fi1 digital camera using NIS-elements software.

For the next data set, the system named is invariant TCR. To be noted: C20:2 compared to OCH; cited from earlier work.

The structures appear in SMILES notation.

We go through one compound from patent publication US20170027973A1, “MODULARION OF INVARIANT NATURAL KILLER T CELLS IN THE TREATMENT OF SEPSIS” (LONDON HEALTH SCIENCES CENTRE RESEARCH INC., priority 2014, published 2017).

Take `CCCCC/C=C\C/C=C\CCCCCCCCCC(=O)N[C@@H](CO[C@H]1O[C@H](CO)[C@H](O)[C@H](O)[C@H]1O)[C@H](O)[C@H](O)CCCCCCCCCCCCCC` [C20:2]: in the data set on serum IL-4 and IFN-γ, the “Th2 response at 24 hours” value is listed as “more pronounced”. The half-life entry in data set [1] is listed as “relatively short”. The respiratory status result in data set [2] (observed up to 24 hours) is given as “improved respiratory status”. Moreover, the “course of MSS over time” value in data set [2] (up to 24 hours) was “continued to rise”. Besides, the “MSS between 20 and 24 hours” value in data set [2] (compared to vehicle-treated mice) was “significant reduction”. In the data set on splenocyte apoptosis, the “apoptosis in histology compared to KRN7000-treated mice” value is reported as “decrease” and the “degree of apoptosis compared to OCH-treated mice” value was “higher”. Further, the “capacity to bind and activate iNKT cells” value with invariant TCR is reported as “significantly stronger”.
